The source of these data is US20120101083A1, “S1P1 AGONISTS COMPRISING A BICYCLIC N-CONTAINING RING” (GLAXO GROUP LIMITED, priority 2009, published 2012).

For orientation: EC50 means the concentration needed to bring the measured effect to its halfway point.

Structures can show the parent of a compound that is named as a salt.

One data set deals with circulating lymphocytes. To be noted: animals and man; cited from earlier work.
The conditions of data set [1]: clinical studies, first 24 hours of treatment; cited from earlier work.
In data set [2] the target is T1, human Endothelial Differentiation G-protein Coupled Receptor 3 (EDG3) (Homo sapiens, UniProt Q99500).
T1 construct: expressed in transfected cells; host or cells: GeneBLAzer Ga15-NFAT-bla HEK 293T cell line
T1 sequence (Q99500 whole entry): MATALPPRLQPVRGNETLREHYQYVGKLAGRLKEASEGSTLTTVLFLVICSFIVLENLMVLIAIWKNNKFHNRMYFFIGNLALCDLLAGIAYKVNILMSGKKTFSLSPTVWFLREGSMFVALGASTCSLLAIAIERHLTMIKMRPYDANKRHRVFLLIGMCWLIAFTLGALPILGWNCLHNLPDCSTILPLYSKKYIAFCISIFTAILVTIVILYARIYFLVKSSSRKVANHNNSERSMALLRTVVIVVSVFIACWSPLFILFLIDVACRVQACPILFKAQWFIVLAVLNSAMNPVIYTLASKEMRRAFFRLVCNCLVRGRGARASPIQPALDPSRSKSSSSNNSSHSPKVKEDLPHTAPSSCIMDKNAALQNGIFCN
Description: S1P3 GeneBlazer assay. In kind it is cell-based. To be noted: EDG3-Ga15-NFAT-bla HEK 293T cells. The procedure:
GeneBLAzer EDG3-Ga15-NFAT-bla HEK 293T cells (contain the human Endothelial Differentiation G-protein Coupled Receptor 3 (EDG3) and a beta-lactamase reporter gene under control of a NFAT response element and a promiscuous G Protein, Ga15, stably integrated into the GeneBLAzer Ga15-NFAT-bla HEK 293T cell line) were suspended in assay medium (99% DMEM, 1% Dialyzed FBS, 0.1 mM NEAA, 25 mM HEPES (pH 7.3), 100 U/ml penicillin, 100 μg/ml streptomycin) at a density of 312, 500 cells/ml. Add 100 μl/well of the assay medium to the cell-free control wells (column 12) and 100 μl/well of the cell suspension to the test compound wells (row 2-8, column 1-10), the unstimulated control wells (DMSO) (column 11), and stimulated control wells (S1P) (row 1, column 1-10) in a Corning black-well, clear bottom 96-well plate. Cells were incubated at 37° C., 5% CO2 for 24 h. […]
After incubation at 37° C., 5% CO2 for 5 h, 25 μl of 6× substrate mixture (6 μl Solution A (1 mg LiveBLAzer™-FRET B/G Substrate (CCF4-AM) in 912 μl DMSO) plus 60 μl Solution B plus 934 μl Solution C) was added to each well and incubate at room temperature for 2 h in dark. The plate was finally read on EnVision for two emission channels (460 nm and 530 nm). […]

Data set [3] deals with T2, human Endothelial Differentiation Gene 1 (EDG1) (Homo sapiens, UniProt P21453).
T2 construct: TEV protease cleavage site; Gal4-VP16 transcription factor (printed Ga14-VP16); expressed in transfected cells; host or cells: Tango GPCR-bla U2OS parental cell line (EDG1-bla/U2OS)
T2 sequence (P21453 whole entry, the tested form may be a part): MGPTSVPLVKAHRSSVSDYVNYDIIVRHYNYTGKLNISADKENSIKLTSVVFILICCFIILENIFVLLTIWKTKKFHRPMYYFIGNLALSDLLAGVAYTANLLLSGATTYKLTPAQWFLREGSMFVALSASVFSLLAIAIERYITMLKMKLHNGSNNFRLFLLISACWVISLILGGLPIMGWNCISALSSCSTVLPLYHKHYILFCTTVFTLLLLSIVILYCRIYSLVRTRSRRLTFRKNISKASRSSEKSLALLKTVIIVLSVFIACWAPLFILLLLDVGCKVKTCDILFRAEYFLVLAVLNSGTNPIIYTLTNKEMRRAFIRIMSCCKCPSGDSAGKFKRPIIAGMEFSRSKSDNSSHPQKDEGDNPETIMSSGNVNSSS
Description: S1P1 Tango assay, 384 well format. The class given is cell-based. The note with it: EDG1-bla/U2OS cells. The procedure: S1P1 Tango Assay—384 Well Format
Recombinant EDG1-bla/U2OS cells (contain the human Endothelial Differentiation Gene 1 (EDG1) linked to a TEV protease site and a Ga14-VP16 transcription factor stably integrated into the Tango GPCR-bla U20S parental cell line) were harvested from growth medium and passaged into assay medium (Invitrogen Freestyle Expression Medium). The cells were starved for 24 hours at 37° C., 5% CO2, harvested and resuspended in assay medium at a density of ˜200,000 cells/ml. All test compounds were dissolved in DMSO at a concentration of 10 mM and were prepared in 100% DMSO to provide 10 point dose response curves. Test compounds prepared by Bravo (Velocity11) were added to wells in columns 2-11 and 13-22; DMSO was added to wells in columns 12 and 23 as unstimulated controls and assay medium was added to wells in columns 1 and 24 as cell-free controls. […]
10 μl of 6× substrate mixture (LiveBLAzer™-FRET B/G substrate (CCF4-AM) Cat # K1096 from Invitrogen, Inc.) was added to each well using Bravo and the plates incubated at room temperature for 2 h in the dark. The plate was finally read on EnVision using one excitation channel (409 nm) and two emission channels (460 nm and 530 nm).
The blue/green emission ratio (460 nm/530 nm) was calculated for each well, by dividing the background-subtracted Blue emission values by the background-subtracted Green emission values. […]

Data set [4] has as its target T3, S1P1 (PathHunter CHO-K1 EDG1 β-Arrestin cell line) (Homo sapiens, UniProt P21453).
T3 construct: host or cells: PathHunter CHO-K1 EDG1 β-Arrestin cell line
Description: S1P-1 β-Arrestin recruitment assay. The class given is cell-based. To be noted: CHO-K1 EDG1 β-Arrestin cells, chemi-luminescence. The gist of the method:
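CHO-K1 cells expressing S1P1 and β-arrestin 2 fused to complementing β-galactosidase fragments, at 1×10^4 cells/well in pH 7.4 buffer with 0.1% BSA. Compound exposure 90 min at 37 °C then 15 min room temperature; chemiluminescent substrate added for 60 min before luminescence read.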
(In general: Activated receptors often draw arrestin, which recruitment assays turn into a signal.)

In data set [5] the target is T4, S1P1 receptor (S1P1 expressing RH7777 membranes) (Homo sapiens, UniProt P21453).
T4 construct: expressed in transfected cells; host or cells: RH7777 cells (membranes)
T4 sequence (P21453 whole entry): as the sequence (P21453 whole entry, the tested form may be a part) above
Description: S1P1 GTPγS assay. The class given is biochemical. The note with it: tested in one of the above S1P1 assays (two GTPγS formats). The gist of the method: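 Membranes from RH7777 cells expressing human S1P1 (1.5 μg/well) precoupled 30 min on ice to WGA SPA beads in 20 mM HEPES pH 7.4, 10 mM MgCl2, 100 mM NaCl, with 10 μM GDP and 90 μg/ml saponin. [35S]-GTPγS 0.5 nM final added with compound; SPA signal read immediately.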

T3 sequence (P21453 whole entry): as the sequence (P21453 whole entry, the tested form may be a part) above
T3 sequence (P32121 whole entry partner): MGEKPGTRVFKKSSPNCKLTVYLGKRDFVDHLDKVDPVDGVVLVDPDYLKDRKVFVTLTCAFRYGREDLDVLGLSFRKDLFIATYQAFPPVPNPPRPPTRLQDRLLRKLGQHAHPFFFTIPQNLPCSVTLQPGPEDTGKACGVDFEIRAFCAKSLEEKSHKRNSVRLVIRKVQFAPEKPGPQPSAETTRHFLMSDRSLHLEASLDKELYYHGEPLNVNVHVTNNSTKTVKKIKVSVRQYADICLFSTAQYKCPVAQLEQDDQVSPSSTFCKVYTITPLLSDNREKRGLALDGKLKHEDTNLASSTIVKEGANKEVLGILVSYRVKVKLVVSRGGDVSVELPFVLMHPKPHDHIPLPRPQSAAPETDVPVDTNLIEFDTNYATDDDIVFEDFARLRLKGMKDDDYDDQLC

In the case of `CCCCCCCCc1ccc(CCC(N)(CO)CO)cc1` [FTY720], in the data set on circulating lymphocytes, the circulating lymphocytes result was “reduce circulating lymphocytes in animals and man”. In addition, the bradycardia result in data set [1] is recorded as “bradycardia in the first 24 hours of treatment”.
For `CCc1c(-c2nnc(-c3ccc(OC(C)C)c(C#N)c3)s2)ccc2c1CCN(C(CO)CO)C2` [Example 205, 5-(5-{5-ethyl-2-[2-hydroxy-1-(hydroxymethyl)ethyl]-1,2,3,4-tetrahydro-6-isoquinolinyl}-1,3,4-thiadiazol-2-yl)-2-[(1-methylethyl)oxy]benzonitrile], the EC50 in data set [2] is above 10000 nM; in data set [3], below 100 nM.
As for `CCc1c(-c2cnc(-c3ccc(OC(C)C)c(C#N)c3)s2)ccc2c1CCN(C(CO)CO)C2` [Example 204, 5-(5-{5-ethyl-2-[2-hydroxy-1-(hydroxymethyl)ethyl]-1,2,3,4-tetrahydro-6-isoquinolinyl}-1,3-thiazol-2-yl)-2-[(1-methylethyl)oxy]benzonitrile], the EC50 in data set [2] is above 10000 nM; in data set [3] it was below 1000 nM.
For `Cc1c(-c2noc(-c3ccc(OC(C)C)c(C#N)c3)n2)ccc2c1CCN(C(=O)[C@@](C)(N)CO)C2` [Example 82, 2-[(1-methylethyl)oxy]-5-{3-[5-methyl-2-(2-methyl-L-seryl)-1,2,3,4-tetrahydro-6-isoquinolinyl]-1,2,4-oxadiazol-5-yl}benzonitrile], the EC50 in data set [4] is at most 100 nM; in data set [5], at most 1000 nM.
Turning to `N#Cc1cc(-c2nc(-c3ccc4c(c3)CCN(C[C@H](O)CO)CC4)no2)ccc1OCC(F)(F)F` [Example 135, 5-(3-{3-[(2S)-2,3-dihydroxypropyl]-2,3,4,5-tetrahydro-1H-3-benzazepin-7-yl}-1,2,4-oxadiazol-5-yl)-2-[(2,2,2-trifluoroethyl)oxy]benzonitrile], the EC50 in data set [4] and in data set [5] was at most 100 nM in each case.
As for `CC(C)Oc1ccc(-c2nnc(-c3ccc4c(c3)CCN(CCC(N)=O)C4)s2)cc1C#N` [Example 47, 3-[6-(5-{3-cyano-4-[(1-methylethyl)oxy]phenyl}-1,3,4-thiadiazol-2-yl)-3,4-dihydro-2(1H)-isoquinolinyl]propanamide], the EC50 in data set [4] was at most 100 nM; in data set [5], at most 1000 nM.
Turning to `Cc1c(-c2noc(-c3ccc(OC(C)C)c(C#N)c3)n2)ccc2c1CCN(CC(O)CO)C2` (centres unmarked) [Example 6, 5-{3-[2-(2,3-Dihydroxypropyl)-5-methyl-1,2,3,4-tetrahydro-6-isoquinolinyl]-1,2,4-oxadiazol-5-yl}-2-[(1-methylethyl)oxy]benzonitrile], the EC50 is at most 10 nM in data set [4] and at most 100 nM in data set [5].
The corresponding values for `Cc1c(-c2noc(-c3cnc(OC(C)C)c(C#N)c3)n2)ccc2c1CCN(C[C@H](O)CO)C2` [Example 132, 5-(3-{2-[(2S)-2,3-dihydroxypropyl]-5-methyl-1,2,3,4-tetrahydro-6-isoquinolinyl}-1,2,4-oxadiazol-5-yl)-2-[(1-methylethyl)oxy]-3-pyridinecarbonitrile] are at most 100 nM and at most 1000 nM.
With `Cc1c(-c2noc(-c3ccc(OC(C)C)c(C#N)c3)n2)ccc2c1CCN(CCCO)C2` [Example 8, 5-{3-[2-(3-Hydroxypropyl)-5-methyl-1,2,3,4-tetrahydro-6-isoquinolinyl]-1,2,4-oxadiazol-5-yl}-2-[(1-methylethyl)oxy]benzonitrile], the EC50 in data set [4] is at most 10 nM; in data set [5] it was at most 100 nM.
On to `Cc1c(-c2noc(-c3ccc(OC(C)C)c(C#N)c3)n2)ccc2c1CCN(C[C@H](O)CO)C2` [Example 71, 5-(3-{2-[(2S)-2,3-dihydroxypropyl]-5-methyl-1,2,3,4-tetrahydro-6-isoquinolinyl}-1,2,4-oxadiazol-5-yl)-2-[(1-methylethyl)oxy]benzonitrile hydrochloride], for which the EC50 in data set [4] and in data set [5] was at most 100 nM in each case.
